Source: patent US9896441B2 (Lycera Corporation, priority 2014, dated 2018)

Columns and labels:
Gal4-RORγ-LBD = target: T1, Gal4-RORγ-LBD (Homo sapiens, UniProt P51449); test: Gal4-RORγ Luciferase Reporter Assay in HEK-293T Cells; type: cell-based; settings: HEK-293 cells; for Gal4-RORγ Assay Max Response: maximum response
T1 construct: expressed in transfected cells
T1 sequence (P51449 269-508 limits assumed): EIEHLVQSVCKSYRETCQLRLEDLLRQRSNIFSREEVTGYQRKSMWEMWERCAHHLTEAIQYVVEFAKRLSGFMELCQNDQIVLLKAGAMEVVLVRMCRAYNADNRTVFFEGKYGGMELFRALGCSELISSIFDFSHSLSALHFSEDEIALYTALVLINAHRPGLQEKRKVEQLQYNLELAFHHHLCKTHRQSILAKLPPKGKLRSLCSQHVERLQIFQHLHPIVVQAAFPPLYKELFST
How it was run: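 HEK-293 cells were co-transfected with Gal4-RORγ-LBD and a Gal4-luciferase reporter, then exposed overnight at 37 °C to compounds with […] ursolic acid present (0.2% DMSO). Luminescence was read with One-Glo after 10 min at RT, untreated signal was set as 100, and Max Response was taken as the upper plateau of a 4-parameter logistic fit.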

RORγ-LBD = target: T2, RORγ-LBD (Homo sapiens, UniProt P51449); test: RORγ-Ligand Binding Domain (LBD) TR-FRET Assay; type: biochemical; settings: for TR-FRET Assay Max Response: maximum response;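 for TR-FRET Assay Max Response: 665/615 nm signal ratio set to 100 without ursolic acid or test compound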
T2 construct: made in house; host or cells: SF9 cells (baculovirus); used as diluted lysate
T2 sequence (P51449 269-508 limits assumed): T1 sequence (P51449 269-508 limits assumed)
How it was run: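 This TR-FRET coactivator assay pairs baculovirus-expressed His-RORγ-LBD (~3 nM final) with biotin-SRC1 LXXLL peptide at 200 nM final in pH 7.0 Tris/KCl/EDTA/DTT/BSA buffer.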

[1] = luciferase reporter, in presence of ursolic acid
[2] = luciferase reporter, with ursolic acid
[3] = ursolic acid present, luciferase readout
[4] = with 2 μM ursolic acid (RORγ antagonist), highest test concentration 10 μM

SMILES	EC50 (Gal4-RORγ-LBD; [1]) [nM]	Gal4-RORγ Assay Max Response (Gal4-RORγ-LBD; [1])	EC50 (RORγ-LBD; RORγ-LBD TR-FRET assay) [nM]	TR-FRET Assay Max Response (RORγ-LBD; RORγ-LBD TR-FRET assay)	EC50 (Gal4-RORγ-LBD; [2]) [nM]	EC50 (RORγ-LBD; RORγ-LBD TR-FRET) [nM]	other results
C/C(=C\c1ccc2c(c1)N(S(=O)(=O)c1cccc(C(F)(F)F)c1)C[C@H](OCC(=O)O)C2)c1c(F)cccc1Cl [Example 173E, (R,E)-2-((7-(2-(2-chloro-6-fluorophenyl)prop-1-en-1-yl)-1-((3-(trifluoromethyl)-phenyl)sulfonyl)-1,2,3,4-tetrahydroquinolin-3-yl)oxy)acetic acid]	500 to 5000	** (a value in the range of greater than 90 to 150)	< 500	** (a value in the range of greater than 90 to 150)	–	–	–
O=S(=O)(c1cccc(C(F)(F)F)c1)N1C[C@H](O)Cc2ccc(OCc3c(F)cccc3Cl)cc21 [Example 155, (R)-7-((2-Chloro-6-fluorobenzyl)oxy)-1-((3-(trifluoromethyl)phenyl)sulfonyl)-1,2,3,4-tetrahydroquinolin-3-ol]	< 500	** (a value in the range of greater than 90 to 150)	< 500	** (a value in the range of greater than 90 to 150)	–	–	–
CCOc1nn(CC)cc1S(=O)(=O)N1C[C@H](CCC(=O)OC)Oc2ccc(/C=C/c3ncccc3Cl)cc21 [Example 89DJ, methyl (S,E)-3-(6-(2-(3-chloropyridin-2-yl)vinyl)-4-((3-ethoxy-1-ethyl-1H-pyrazol-4-yl)sulfonyl)-3,4-dihydro-2H-benzo[b][1,4]oxazin-2-yl)propanoate]	–	–	–	–	500 to 5000	< 500	–
O=C(O)CC[C@H]1CN(S(=O)(=O)c2cccc(C(F)(F)F)c2)c2cc(C=C3CCCC3)ccc2O1 [Example 92, (S)-3-(6-(Cyclopentylidenemethyl)-4-((3-(trifluoromethyl)phenyl)sulfonyl)-3,4-dihydro-2H-benzo[b][1,4]oxazin-2-yl)propanoic acid]	–	–	–	–	500 to 5000	< 500	–
COC(=O)CC[C@H]1CN(S(=O)(=O)c2cccc(OC(F)F)c2)c2cc(/C=C(\C)c3c(F)cccc3Cl)cc(F)c2O1 [Example 51, Methyl (S,E)-3-(6-(2-(2-chloro-6-fluorophenyl)prop-1-en-1-yl)-4-((3-(difluoromethoxy)phenyl)sulfonyl)-8-fluoro-3,4-dihydro-2H-benzo[b][1,4]oxazin-2-yl)propanoate]	–	–	–	–	< 500	< 500	–
CCOc1nn(CC)cc1S(=O)(=O)N1C[C@H](CCC(=O)O)Oc2ccc(/C=C/c3ccc(C#N)cc3)cc21 [Example 89DC, (S,E)-3-(6-(4-cyanostyryl)-4-((3-ethoxy-1-ethyl-1H-pyrazol-4-yl)sulfonyl)-3,4-dihydro-2H-benzo[b][1,4]oxazin-2-yl)propanoic acid]	–	–	–	–	> 10000	> 10000	–
C/C(=C\c1ccc2c(c1)N(S(=O)(=O)c1cccc(C(F)(F)F)c1)C[C@H](CNC(=O)N1CCC(C(=O)O)CC1)O2)c1c(F)cccc1Cl [Example 116O, (S,E)-1-(((6-(2-(2-chloro-6-fluorophenyl)prop-1-en-1-yl)-4-((3-(trifluoromethyl)phenyl)sulfonyl)-3,4-dihydro-2H-benzo[b][1,4]oxazin-2-yl)methyl)carbamoyl)piperidine-4-carboxyic acid]	–	–	–	–	–	–	EC50 (Gal4-RORγ-LBD; [3]): < 500 nM; EC50 (RORγ-LBD; [4]): < 500 nM
C/C(=C\c1ccc2c(c1)N(S(=O)(=O)c1cccc(C(F)(F)F)c1)C[C@H](CCN1CCCC1)O2)c1c(F)cccc1Cl [Example 118, (S,E)-6-(2-(2-Chloro-6-fluorophenyl)prop-1-en-1-yl)-2-(2-(pyrrolidin-1-yl)ethyl)-4-((3-(trifluoromethyl)phenyl)sulfonyl)-3,4-dihydro-2H-benzo[b][1,4]oxazine]	500 to 5000	–	< 500	–	–	–	–
COc1cc(S(=O)(=O)N2CCCc3ccc(O[C@@H]4c5ccccc5C[C@H]4C)cc32)ccc1F (relative stereo) [Example 25E, 1-((4-fluoro-3-methoxyphenyl)sulfonyl)-7-(((trans)-2-methyl-2,3-dihydro-1H-inden-1-yl)oxy)-1,2,3,4-tetrahydroquinoline]	–	–	–	–	500 to 5000	< 500	–
C/C(=C\c1ccc2c(c1)N(S(=O)(=O)c1cccc(C(F)(F)F)c1)C[C@H](CNC(=O)N1CCOCC1)O2)c1c(F)cccc1Cl [Example 116N, (S,E)-N-((6-(2-(2-chloro-6-fluorophenyl)prop-1-en-1-yl)-4-((3-(trifluoromethyl)phenyl)sulfonyl)-3,4-dihydro-2H-benzo[b][1,4]-oxazin-2-yl)methyl)morpholine-4-carboxamide]	–	–	–	–	–	–	EC50 (Gal4-RORγ-LBD; [3]): < 500 nM; EC50 (RORγ-LBD; [4]): < 500 nM
CCn1cc(S(=O)(=O)N2C[C@H](CCNC(C)=O)Oc3ccc(/C=C(\C)c4c(F)cccc4Cl)cc32)c(Cl)n1 [Example 116E, (S,E)-N-(2-(4-((3-chloro-1-ethyl-1H-pyrazol-4-yl)sulfonyl)-6-(2-(2-chloro-6-fluorophenyl)-prop-1-en-1-yl)-3,4-dihydro-2H-benzo[b][1,4]oxazin-2-yl)ethyl)acetamide]	< 500	** (a value in the range of greater than 90 to 150)	< 500	*** (a value in the range of greater than 150 to 200)	–	–	–
C/C(=C\c1ccc2c(c1)N(S(=O)(=O)c1cccc(C(C)C)c1)C[C@H](CCC(=O)O)O2)c1c(F)cccc1Cl [Example 86Q, (S,E)-3-(6-(2-(2-chloro-6-fluorophenyl)prop-1-en-1-yl)-4-((3-isopropylphenyl)sulfonyl)-3,4-dihydro-2H-benzo[b][1,4]oxazin-2-yl)propanoic acid]	–	–	–	–	< 500	< 500	–
COC(=O)C(C)(C)C[C@@H]1Cc2ccc(OCc3c(F)cccc3Cl)cc2N(S(=O)(=O)c2ccc(F)c(OC)c2)C1 [Example 26, (S)-Methyl 3-(7-((2-chloro-6-fluorobenzyl)oxy)-1-((4-fluoro-3-methoxyphenyl)sulfonyl)-1,2,3,4-tetrahydroquinolin-3-yl)-2,2-dimethylpropanoate]	–	–	–	–	< 500	< 500	–
O=C(O)CC[C@H]1CN(S(=O)(=O)c2cccc(OC(F)F)c2)c2cc(/C=C/c3c(F)cccc3Cl)ccc2O1 [Example 89A, (S,E)-3-(6-(2-chloro-6-fluorostyryl)-4-((3-(difluoromethoxy)phenyl)sulfonyl)-3,4-dihydro-2H-benzo[b][1,4]oxazin-2-yl)propanoic acid]	–	–	–	–	500 to 5000	< 500	–
C/C(=C\c1ccc2c(c1)N(S(=O)(=O)c1cccc(C(F)(F)F)c1)CC(C(=O)O)C2)c1c(F)cccc1Cl (stereo not shown)	–	–	–	–	–	–	EC50 (Gal4-RORγ-LBD; [3]): 500 to 5000 nM; EC50 (RORγ-LBD; [4]): < 500 nM
COC(=O)CC[C@H]1CN(S(=O)(=O)c2c(Cl)nc3sccn23)c2cc(/C=C(\C)c3c(F)cccc3Cl)ccc2O1 [Example 86V, (S)-methyl 3-(6-(2-(2-chloro-6-fluorophenyl)prop-1-en-1-yl)-4-((6-chloroimidazo[2,1-b]thiazol-5-yl)sulfonyl)-3,4-dihydro-2H-benzo[b][1,4]oxazin-2-yl)propanoate]	–	–	–	–	500 to 5000	< 500	–
C/C(=C\c1ccc2c(c1)N(S(=O)(=O)c1cccc(C(F)(F)F)c1)C[C@H](CCO)O2)c1c(F)cccc1Cl [Example 106, (S,E)-2-(6-(2-(2-Chloro-6-fluorophenyl)prop-1-en-1-yl)-4-((3-(trifluoromethyl)phenyl)sulfonyl)-3,4-dihydro-2H-benzo[b][1,4]oxazin-2-yl)ethanol]	< 500	** (a value in the range of greater than 90 to 150)	< 500	*** (a value in the range of greater than 150 to 200)	–	–	–
C/C(=C\c1ccc2c(c1)C(S(=O)(=O)c1cccc(C(F)(F)F)c1)CC(CNC(=O)C(C)(C)O)O2)c1c(F)cccc1Cl (stereo not shown) [Example 182, (E)-N-((6-(2-(2-Chloro-6-fluorophenyl)prop-1-en-1-yl)-4-((3-(trifluoromethyl)phenyl)sulfonyl)chroman-2-yl)methyl)-2-hydroxy-2-methylpropanamide]	< 500	** (a value in the range of greater than 90 to 150)	< 500	*** (a value in the range of greater than 150 to 200)	–	–	–
CCOC(=O)C(=O)NCC[C@H]1CN(S(=O)(=O)c2ccc(F)c(OC)c2)c2cc(/C=C(\C)c3c(F)cccc3Cl)ccc2O1 [Example 116C, ethyl (S,E)-2-((2-(6-(2-(2-chloro-6-fluorophenyl)prop-1-en-1-yl)-4-((4-fluoro-3-methoxyphenyl)sulfonyl)-3,4-dihydro-2H-benzo[b][1,4]oxazin-2-yl)ethyl)amino)-2-oxoacetate]	500 to 5000	** (a value in the range of greater than 90 to 150)	< 500	*** (a value in the range of greater than 150 to 200)	–	–	–
O=C(O)CC[C@H]1CN(S(=O)(=O)c2cccc(OC(F)F)c2)c2cc(/C=C/c3c(Cl)cccc3Cl)ccc2O1 [Example 89CT, (S,E)-3-(6-(2,6-dichlorostyryl)-4-((3-(difluoromethoxy)phenyl)-sulfonyl)-3,4-dihydro-2H-benzo[b][1,4]oxazin-2-yl)propanoic acid]	–	–	–	–	< 500	< 500	–
